Source: patent publication US20250064941A1, “SIGLEC LIGANDS, CONJUGATES, AND METHODS OF USE THEREOF” (Osprey Biopharmaceuticals, Inc., priority 2023, published 2025)

What was measured:
[1] = target: T1, human Siglec-2/CD22 protein (Homo sapiens, UniProt P20273); assay: SPR binding affinity to human CD22; settings: steady-state analysis
T1 construct: purchased Acro Biosystems SI2-H82E3
T1 sequence (P20273 20-847): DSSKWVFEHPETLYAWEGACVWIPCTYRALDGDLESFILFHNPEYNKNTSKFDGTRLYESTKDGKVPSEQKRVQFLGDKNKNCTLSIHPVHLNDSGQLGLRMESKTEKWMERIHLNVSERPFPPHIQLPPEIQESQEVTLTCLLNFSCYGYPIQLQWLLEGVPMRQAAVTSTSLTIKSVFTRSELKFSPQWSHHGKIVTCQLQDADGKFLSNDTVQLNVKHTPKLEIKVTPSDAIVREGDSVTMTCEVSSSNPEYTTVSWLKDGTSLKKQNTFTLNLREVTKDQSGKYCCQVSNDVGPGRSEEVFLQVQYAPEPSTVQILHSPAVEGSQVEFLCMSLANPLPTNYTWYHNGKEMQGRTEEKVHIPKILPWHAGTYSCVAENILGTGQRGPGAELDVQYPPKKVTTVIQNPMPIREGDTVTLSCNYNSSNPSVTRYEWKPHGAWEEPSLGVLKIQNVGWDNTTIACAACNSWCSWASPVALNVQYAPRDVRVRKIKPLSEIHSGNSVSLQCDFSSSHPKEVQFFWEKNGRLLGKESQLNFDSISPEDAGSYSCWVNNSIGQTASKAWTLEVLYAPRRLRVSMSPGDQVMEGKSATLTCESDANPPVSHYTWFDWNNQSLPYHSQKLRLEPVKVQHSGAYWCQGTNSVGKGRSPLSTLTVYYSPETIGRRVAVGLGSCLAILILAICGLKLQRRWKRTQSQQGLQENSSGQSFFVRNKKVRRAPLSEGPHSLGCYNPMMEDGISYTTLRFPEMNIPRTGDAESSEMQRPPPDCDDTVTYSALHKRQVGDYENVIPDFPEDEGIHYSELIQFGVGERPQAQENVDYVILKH
Protocol: (§1) Prior to immobilization, CD22 proteins were treated with SialoExo (Genovis, Cat #G1-SM1-020) for 4 hours at 37° C. to remove native sialic acid residues.
(§2) Capture of biotinylated CD22 constructs was performed using a Cytiva SA chip (BR100398) on a Biacore 8K instrument.
(§3) Binding experiments of Siglec-ligand conjugated proteins or Siglec ligand compounds were performed on the surfaces prepared above in 10 mM HEPES, 150 mM NaCl, 0.05% Tween-20, pH 7.5, 1% DMSO as the running buffer. […] The compounds were then allowed to dissociate from the surface for 120 seconds. […] Solvent correction was performed using 0.5, 1, 1.5, and 2% DMSO spike into running buffer without DMSO. […] Data was analyzed using steady-state analysis in Biacore Insight Evaluation Software, version 3.0 for Siglec ligand compounds.

[2] = target: T2, mouse Siglec-2-Fc-Avi (CD22) (Mus musculus, UniProt P35329); assay: SPR binding affinity to mouse CD22; settings: steady-state analysis
T2 construct: made in house
T2 sequence (P35329 22-708 limits assumed): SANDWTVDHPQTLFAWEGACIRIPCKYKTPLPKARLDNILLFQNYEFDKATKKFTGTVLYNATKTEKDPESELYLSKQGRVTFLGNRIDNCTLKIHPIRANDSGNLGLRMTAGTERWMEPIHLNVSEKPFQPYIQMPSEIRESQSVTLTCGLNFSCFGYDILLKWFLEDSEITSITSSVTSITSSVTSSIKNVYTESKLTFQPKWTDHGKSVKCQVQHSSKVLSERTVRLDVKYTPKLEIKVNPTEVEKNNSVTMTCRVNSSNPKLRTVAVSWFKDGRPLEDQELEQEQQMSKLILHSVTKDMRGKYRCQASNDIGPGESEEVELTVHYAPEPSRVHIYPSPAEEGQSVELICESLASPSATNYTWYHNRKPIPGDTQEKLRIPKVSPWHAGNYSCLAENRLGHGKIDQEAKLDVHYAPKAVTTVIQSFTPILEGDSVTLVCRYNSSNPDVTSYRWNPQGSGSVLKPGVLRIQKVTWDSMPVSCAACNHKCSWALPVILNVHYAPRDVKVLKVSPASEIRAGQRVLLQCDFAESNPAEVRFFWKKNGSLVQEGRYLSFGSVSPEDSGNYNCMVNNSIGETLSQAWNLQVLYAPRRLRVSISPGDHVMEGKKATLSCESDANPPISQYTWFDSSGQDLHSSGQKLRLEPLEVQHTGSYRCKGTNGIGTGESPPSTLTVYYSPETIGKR
Protocol: as §1, §2, §3

| SMILES | Kd [1] [nM] | Kd [2] [nM] |
| --- | --- | --- |
| C#CCOCCOCCO[C@]1(C(=O)O)C[C@H](O)[C@@H](NC(C)=O)[C@H]([C@H](O)[C@H](O)CNCc2cccc(Oc3ccccc3)c2)O1 [Compound 17, (2R,4S,5R,6R)-5-acetamido-6-((1R,2R)-1,2-dihydroxy-3-((3-phenoxybenzyl)amino)propyl)-4-hydroxy-2-(2-(2-(prop-2-yn-1-yloxy)ethoxy)ethoxy)tetrahydro-2H-pyran-2-carboxylic acid] | < 1000 | > 10000 |
| C#CCOCCOCCNc1c(NCCCCCCO[C@]2(C(=O)O)C[C@H](O)[C@@H](NC(=O)CO)[C@H]([C@H](O)[C@H](O)CNC(=O)c3cccc(Oc4ccccc4)c3)O2)c(=O)c1=O [Compound 39, (2R,4S,5R,6R)-6-((1R,2R)-1,2-dihydroxy-3-(3-phenoxybenzamido)propyl)-2-((6-((3,4-dioxo-2-((2-(2-(prop-2-yn-1-yloxy)ethoxy)ethyl)amino)cyclobut-1-en-1-yl)amino)hexyl)oxy) -4-hydroxy-5-(2-hydroxyacetamido) tetrahydro-2H-pyran-2-carboxylic acid] | < 1000 | 1000 to 10000 |
| C#CCOCCCCCCO[C@]1(C(=O)O)C[C@H](O)[C@@H](NC(=O)NCC)[C@H]([C@H](O)[C@H](O)CNC(=O)Cc2ccc(Cl)cc2)O1 [Compound 87, (2R,4S,5R,6R)-6-((1R,2R)-3-(2-(4-chlorophenyl)acetamido)-1,2-dihydroxypropyl)-5-(3-ethylureido)-4-hydroxy-2-((6-(prop-2-yn-1-yloxy)hexyl)oxy)tetrahydro-2H-pyran-2-carboxylic acid] | < 1000 | 1000 to 10000 |
| C#CCOCCCCCCO[C@]1(C(=O)O)C[C@H](O)[C@@H](NC(=O)c2ccccc2)[C@H]([C@H](O)[C@H](O)CNC(=O)Cc2ccc(Cl)cc2)O1 [Compound 92, (2R,4S,5R,6R)-5-benzamido-6-((1R,2R)-3-(2-(4-chlorophenyl)acetamido)-1,2-dihydroxypropyl)-4-hydroxy-2-((6-(prop-2-yn-1-yloxy)hexyl)oxy)tetrahydro-2H-pyran-2-carboxylic acid] | < 1000 | > 10000 |
| C#CCOP(=O)(O)OCCCCCO[C@]1(C(=O)O)C[C@H](O)[C@@H](NC(=O)CO)[C@H]([C@H](O)[C@H](O)CNC(=O)Cc2ccc(Cl)cc2)O1 [Compound 95, (2R,4S,5R,6R)-6-((1R,2R)-3-(2-(4-chlorophenyl)acetamido)-1,2-dihydroxypropyl)-4-hydroxy-2-((5-((hydroxy(prop-2-yn-1-yloxy)phosphoryl)oxy)pentyl)oxy)-5-(2-hydroxyacetamido)tetrahydro-2H-pyran-2-carboxylic acid] | < 1000 | 1000 to 10000 |
| C#CCOP(=O)(O)OCCCCO[C@]1(C(=O)O)C[C@H](O)[C@@H](NC(=O)CO)[C@H]([C@H](O)[C@H](O)CNC(=O)Cc2ccc(Cl)cc2)O1 [Compound 115, (2R,4S,5R,6R)-6-((1R,2R)-3-(2-(4-chlorophenyl)acetamido)-1,2-dihydroxypropyl)-4-hydroxy-2-(4-((hydroxy(prop-2-yn-1-yloxy)phosphoryl)oxy)butoxy)-5-(2-hydroxyacetamido)tetrahydro-2H-pyran-2-carboxylic acid] | < 1000 | 1000 to 10000 |
| C#CCOC(=O)NCc1ccc(CO[C@]2(C(=O)O)C[C@H](O)[C@@H](NC(=O)CO)[C@H]([C@H](O)[C@H](O)CNC(=O)Cc3ccc(Cl)cc3)O2)cc1 [Compound 117, (2R,4S,5R,6R)-6-((1R,2R)-3-(2-(4-chlorophenyl)acetamido)-1,2-dihydroxypropyl)-4-hydroxy-5-(2-hydroxyacetamido)-2-((4-((((prop-2-yn-1-yloxy)carbonyl)amino)methyl)benzyl)oxy)tetrahydro-2H-pyran-2-carboxylic acid] | < 1000 | < 1000 |
| C#CCCOc1ccc(CO[C@]2(C(=O)O)C[C@H](O)[C@@H](NC(=O)CO)[C@H]([C@H](O)[C@H](O)CNC(=O)Cc3ccc(N4CCOCC4)cc3)O2)cc1 [Compound 139, (2R,4S,5R,6R)-2-((4-(but-3-yn-1-yloxy)benzyl)oxy)-6-((1R,2R)-1,2-dihydroxy-3-(2-(4-morpholinophenyl)acetamido)propyl)-4-hydroxy-5-(2-hydroxyacetamido)tetrahydro-2H-pyran-2-carboxylic acid] | 1000 to 10000 | < 1000 |
| C#CCOCCCCCCO[C@]1(C(=O)O)C[C@H](O)[C@@H](Nc2c(NC)c(=O)c2=O)[C@H]([C@H](O)[C@H](O)CNC(=O)Cc2ccc(Cl)cc2)O1 [Compound 191, (2R,4S,5R,6R)-6-((1R,2R)-3-(2-(4-chlorophenyl)acetamido)-1,2-dihydroxypropyl)-4-hydroxy-5-((2-(methylamino)-3,4-dioxocyclobut-1-en-1-yl)amino)-2-((6-(prop-2-yn-1-yloxy)hexyl)oxy)tetrahydro-2H-pyran-2-carboxylic acid] | < 1000 | > 10000 |
| C#CCOCCCCCCO[C@]1(C(=O)O)C[C@H](O)[C@@H](NC(=O)CO)[C@H]([C@H](O)[C@H](O)CNC(=O)Cc2ccc(N3CCC(O)CC3)cc2)O1 [Compound 194, (2R,4S,5R,6R)-6-((1R,2R)-1,2-dihydroxy-3-(2-(4-(4-hydroxypiperidin-1-yl)phenyl)acetamido)propyl)-4-hydroxy-5-(2-hydroxyacetamido)-2-((6-(prop-2-yn-1-yloxy)hexyl)oxy)tetrahydro-2H-pyran-2-carboxylic acid] | 1000 to 10000 | 1000 to 10000 |
| C#CCOCCCCCCO[C@]1(C(=O)O)C[C@H](O)[C@@H](NC(=O)CO)[C@H]([C@H](O)[C@H](O)CNC(=O)Cc2ccc(-c3ccc(NC(C)=O)cc3)cc2)O1 [Compound 204, (2R,4S,5R,6R)-6-((1R,2R)-3-(2-(4′-acetamido-[1,1′-biphenyl]-4-yl)acetamido)-1,2-dihydroxypropyl)-4-hydroxy-5-(2-hydroxyacetamido)-2-((6-(prop-2-yn-1-yloxy)hexyl)oxy)tetrahydro-2H-pyran-2-carboxylic acid] | < 1000 | < 1000 |
| C#CCOCCOP(=O)(O)OCCCCCCO[C@]1(C(=O)O)C[C@H](O)[C@@H](NC(=O)CO)[C@H]([C@H](O)[C@H](O)CNC(=O)Cc2ccc(C(F)F)cc2)O1 [Compound 215, (2R,4S,5R,6R)-6-((1R,2R)-3-(2-(4-(difluoromethyl)phenyl)acetamido)-1,2-dihydroxypropyl)-4-hydroxy-2-((6-((hydroxy(2-(prop-2-yn-1-yloxy)ethoxy)phosphoryl)oxy)hexyl)oxy)-5-(2-hydroxyacetamido)tetrahydro-2H-pyran-2-carboxylic acid] | < 1000 | > 10000 |
| C#CCOCCOCCNc1c(NCCCCCCO[C@]2(C(=O)O)C[C@H](O)[C@@H](NC(=O)CO)[C@H]([C@H](O)[C@H](O)CNC(=O)c3ccccc3Cl)O2)c(=O)c1=O [Compound 229, (2R,4S,5R,6R)-6-((1R,2R)-3-(2-chlorobenzamido)-1,2-dihydroxypropyl)-2-((6-((3,4-dioxo-2-((2-(2-(prop-2-yn-1-yloxy)ethoxy)ethyl)amino)cyclobut-1-en-1-yl)amino)hexyl)oxy)-4-hydroxy-5-(2-hydroxyacetamido)tetrahydro-2H-pyran-2-carboxylic acid] | 1000 to 10000 | 1000 to 10000 |
